{"source": "patent CN101879305A", "about": "“血清胸腺因子在制备抗肿瘤药物、肿瘤物理及化学治疗药物的保护药物方面的用途” (priority 2007, dated 2010)", "key": {"EAC腹水瘤": {"system": "EAC腹水瘤", "test": "Anti-tumour test, EAC ascites tumour in mice (Example 1)", "format": "in vivo, 昆明小鼠", "settings": "positive control 5-氟尿嘧啶 25mg·kg-1, every other day, three times"}, "H22实体瘤": {"system": "H22实体瘤", "test": "Anti-tumour test, H22 solid tumour in mice (Example 2)", "format": "in vivo, 昆明小鼠", "settings": "positive control 环磷酰胺 20mg·kg-1, single dose"}, "人肝癌Heps瘤": {"system": "人肝癌Heps瘤", "test": "Anti-tumour test, human liver cancer Heps xenograft in nude mice (Example 4)", "format": "in vivo, 裸鼠", "settings": "positive control 环磷酰胺 10mg·kg-1, single dose"}, "Walker-256瘤": {"system": "Walker-256瘤", "test": "Anti-tumour test, Walker-256 tumour in rats (Example 3)", "format": "in vivo, Wistar大鼠", "settings": "positive control 环磷酰胺 89.2mg.kg-1, single dose"}, "[1]": {"test": "Acute toxicity, single tail-vein injection, 7-day observation (Example 7)", "format": "in vivo, 昆明小鼠", "settings": "for 死亡(%): 20 mice, 7 days; for 给药前体重: before dosing (baseline)"}, "[2]": {"test": "Immune indicators in Co60-irradiated mice (white cell count, carbon clearance, organ indices) (Example 8)", "format": "in vivo, 昆明鼠", "settings": "650 rad Co60, after one week"}}, "note": "Ends that are not written are not given here.", "data": [{"molecule": "O=c1[nH]cc(F)c(=O)[nH]1", "note": "[5-氟尿嘧啶]", "values": [{"measurement": "生存时间(天)", "setting": "EAC腹水瘤", "value": "24.3±4.1 天"}, {"measurement": "生命延长率", "setting": "EAC腹水瘤; vs blank group", "value": "82.7 %"}]}, {"molecule": "C#C[C@]1(O)[C@H](O)C[C@H]2[C@@H]3CCc4cc(OC5CCCC5)ccc4[C@H]3CC[C@@]21C", "note": "[环磷酰胺]", "values": [{"measurement": "实体瘤的重量", "setting": "H22实体瘤", "value": "0.6 ± 0.5", "unit": "g"}, {"measurement": "抑瘤率", "setting": "H22实体瘤; vs blank group", "value": "84.8 %"}, {"measurement": "抑瘤率", "setting": "人肝癌Heps瘤", "value": "62.43 %"}, {"measurement": "肿瘤的体积(mm3)", "setting": "人肝癌Heps瘤", "value": "99.73±68.60", "unit": "mm3"}, {"measurement": "肿瘤的重量", "setting": "人肝癌Heps瘤", "value": "0.57 ± 0.12", "unit": "g"}, {"measurement": "肿瘤的重量", "setting": "Walker-256瘤", "value": "2.6 ± 1.7", "unit": "g"}, {"measurement": "抑瘤率(%)", "setting": "Walker-256瘤; vs blank group", "value": "85.4 %"}]}, {"molecule": "EAKSQGGSN [FTS, Glu-Ala-Lys-Ser-Gln-Gly-Gly-Ser-Asn]", "values": [{"measurement": "死亡(%)", "setting": "[1]; 5.0 mg/kg (0.5 mg/ml) i.v. tail vein once", "value": "0 %"}, {"measurement": "给药前体重", "setting": "[1]; 5.0 mg/kg group", "value": "22.3 ± 2.1", "unit": "g"}, {"measurement": "死亡(%)", "setting": "[1]; 10.0 mg/kg (1.0 mg/ml) i.v. tail vein once", "value": "0 %"}, {"measurement": "给药前体重", "setting": "[1]; 10.0 mg/kg group", "value": "23.4 ± 3.1", "unit": "g"}, {"measurement": "死亡(%)", "setting": "[1]; 50.0 mg/kg (5.0 mg/ml) i.v. tail vein once", "value": "0 %"}, {"measurement": "给药前体重", "setting": "[1]; 50.0 mg/kg group", "value": "23.6 ± 2.5", "unit": "g"}, {"measurement": "死亡(%)", "setting": "[1]; 100.0 mg/kg (10.0 mg/ml) i.v. tail vein once", "value": "0 %"}, {"measurement": "给药前体重", "setting": "[1]; 100.0 mg/kg group", "value": "23.1 ± 2.8", "unit": "g"}, {"measurement": "毒性反应或死亡", "setting": "[1]; 5.0, 10.0, 50.0 and 100.0 mg/kg groups, i.v.", "value": "未发现任何毒性反应或死亡"}]}, {"molecule": "C#C[C@]1(O)[C@H](O)C[C@H]2[C@@H]3CCc4cc(OC5CCCC5)ccc4[C@H]3CC[C@@]21C", "note": "[尼尔雌醇]", "values": [{"measurement": "体重增加", "setting": "[2]; positive control 尼尔雌醇 0.05mg/只 single gavage", "value": 3.47}, {"measurement": "吞噬指数α", "setting": "[2]; 尼尔雌醇 0.05mg/只 single gavage", "value": 6.00}, {"measurement": "廓清指数K", "setting": "[2]; 尼尔雌醇 0.05mg/只 single gavage", "value": 0.033}, {"measurement": "白细胞个数(个/mm3)", "setting": "[2]; 尼尔雌醇 0.05mg/只 single gavage", "value": "2693 个/mm3"}, {"measurement": "胸腺指数(mg/10g)", "setting": "[2]; 尼尔雌醇 0.05mg/只 single gavage", "value": 28.32, "unit": "mg/10g"}, {"measurement": "脾指数(mg/10g)", "setting": "[2]; 尼尔雌醇 0.05mg/只 single gavage", "value": 8.96, "unit": "mg/10g"}]}]}
